In the test the target is Aldose reductase (Oryctolagus cuniculus). The test is described as follows: Tested in vitro for inhibitory activity against partially purified aldose reductase from male rabbit lens.

With `CN1C(=O)Nc2ccc(O)cc2C12NC(=O)NC2=O` (configuration not stated), the IC50 is > 10 µM.

In turn, `CN1C(=O)Nc2ccc(Cl)cc2C12NC(=O)NC2=O` (configuration not stated) had an IC50 of 0.056 µM.

As for `Cc1cc2c(cc1Cl)C1(NC(=O)NC1=O)N(C)C(=O)N2` (configuration not stated), the IC50 stood at 0.03 µM.

Consider `CN1C(=O)Nc2ccc(Br)cc2C12NC(=O)NC2=O` (configuration not stated), for which inhibition was half-maximal at 0.052 µM (IC50).

Regarding `CN1C(=O)Nc2c(cc(F)c(F)c2F)C12NC(=O)NC2=O` (configuration not stated), the IC50 was 0.14 µM.

`CN1C(=O)Nc2ccccc2C12NC(=S)NC2=O` (configuration not stated): the IC50 was > 10 µM.

`NN1C(=O)Nc2ccccc2C12NC(=O)NC2=O` (configuration not stated) showed a half-inhibitory concentration (IC50) of 4 µM.

Turning to `CN1C(=O)Nc2ccc(N)cc2C12NC(=O)NC2=O` (configuration not stated), the IC50 is > 10 µM.

As for `CN1C(=O)Nc2ccc(Cl)cc2[C@]12NC(=O)NC2=O`, the IC50 was determined as 0.77 µM.

Regarding `CN1C(=O)Nc2c([N+](=O)[O-])cc(Cl)cc2C12NC(=O)NC2=O` (configuration not stated), half-maximal inhibition (IC50) required 0.046 µM.

For `CN1C(=O)Nc2cc3c(cc2C12NC(=O)NC2=O)OCO3` (configuration not stated), the IC50 worked out at 1.8 µM.

Regarding `O=C1NC(=O)C2(N1)c1ccccc1NC(=O)N2Cc1ccccc1` (configuration not stated), the IC50 was > 10 µM.

Turning to `CN1C(=O)N(C)C2(C1=O)c1ccccc1NC(=O)N2C` (configuration not stated), the IC50 was > 10 µM.

As to `CCCCN1C(=O)Nc2ccccc2C12NC(=O)NC2=O` (configuration not stated), the IC50 is > 10 µM.

`CN1C(=O)Nc2ccc([N+](=O)[O-])cc2C12NC(=O)NC2=O` (configuration not stated) had an IC50 of 0.073 µM.

Consider `CN1C(=O)NC2(C1=O)c1ccccc1NC(=O)N2C` (configuration not stated), for which the IC50 is > 10 µM.

`Cc1ccc2c(c1)NC(=O)N(C)C21NC(=O)NC1=O` (configuration not stated) gave an IC50 of 0.22 µM.

As for `CN1C(=O)Nc2cc(Cl)c(Cl)cc2C12NC(=O)NC2=O` (configuration not stated), the IC50 was determined as 0.074 µM.

On to `CC(C)N1C(=O)Nc2ccccc2C12NC(=O)NC2=O` (configuration not stated), for which the IC50 is > 10 µM.

Compound `O=C1NC(=O)C2(N1)NC(=O)Nc1ccccc12` (configuration not stated) returned an IC50 of 1.4 µM.

Consider `CN1C(=O)NC(=O)C12c1ccccc1NC(=O)N2C` (configuration not stated), for which the IC50 is > 10 µM.

In turn, `CN1C(=O)Nc2cc(Cl)ccc2C12NC(=O)NC2=O` (configuration not stated) displayed an IC50 of 0.094 µM.

`CN1C(=O)Nc2cc(Cl)c([N+](=O)[O-])cc2C12NC(=O)NC2=O` (configuration not stated) gave an IC50 of 0.12 µM.

Turning to `CN1C(=O)Nc2ccccc2C12SC(N)=NC2=O` (configuration not stated), the IC50 was > 10 µM.

With `COc1ccc2c(c1)NC(=O)N(C)C21NC(=O)NC1=O` (configuration not stated), the IC50 stood at 0.36 µM.

Take `CN1C(=O)Nc2ccc(Cl)cc2[C@@]12NC(=O)NC2=O`: the IC50 amounted to 0.022 µM.

As to `CN1C(=O)Nc2ccc(OC(=O)c3ccccc3)cc2C12NC(=O)NC2=O` (configuration not stated), the IC50 came out at 2 µM.

In the case of `Cc1cccc2c1C1(NC(=O)NC1=O)N(C)C(=O)N2` (configuration not stated), inhibition was half-maximal at 0.4 µM (IC50).

The compound `CN1C(=O)Nc2cc(N3CCOCC3)c([N+](=O)[O-])cc2C12NC(=O)NC2=O` (configuration not stated) displayed an IC50 of 0.43 µM.

`O=C1NC(=O)C2(N1)c1ccccc1NC(=O)N2O` (configuration not stated): the IC50 was > 10 µM.

As to `CN1C(=O)Nc2cccc(Cl)c2C12NC(=O)NC2=O` (configuration not stated), 0.86 µM corresponded to half-maximal inhibition (IC50).

On to `CCN1C(=O)Nc2ccccc2C12NC(=O)NC2=O` (configuration not stated), for which the IC50 was found to be 1 µM.

For the origin of these results see BindingDB's records for doi:10.1021/jm00089a021 (Tanabe Seiyaku, 1992).
